Reference: publication PMC8395335, “Serotonergic–Muscarinic Interaction within the Prefrontal Cortex as a Novel Target to Reverse Schizophrenia-Related Cognitive Symptoms” (International Journal of Molecular Sciences, 2021)
Where two headings read alike, the source gives them in different places.

Key:
[1] = Pharmacokinetic analysis of drug-drug interactions (plasma, FC concentration, FC penetration); type: in vivo, mice; details: for Kp at 30 min / concentration at 30 min: Albino Swiss, mouse, intraperitoneal; for Kp at 30 min: frontal cortex/plasma
Method: The experiment was performed using the methods described by Bridges et al. and in our previous studies.
The pharmacokinetic analysis was performed in the blood and prefrontal cortex. […] Plasma and FC samples were stored at −80 °C until analysis.
The investigated compounds were administered alone at the top dose (F15599—0.1 mg/kg, VU0357017—5 mg/kg, VU0152100—1 mg/kg, and VU0238429—5 mg/kg) and in combinations of muscarinic ligands at subeffective doses with F15599 at subeffective dose (F15599 + VU0357017 0.05 and 0.15 mg/kg, F15599 + VU0152100 0.05 and 0.05 mg/kg, F15599 + VU0238429 0.05 and 1 mg/kg). The FC and blood were collected on the eighth day, 30 min after administration. All mice were parallelly treated with MK-801 (0.3 mg/kg) for seven consecutive days.
On the day of analysis, frozen whole mouse brain tissues were weighed and homogenized in 1:2 (w/v) volumes of ice-cold acetonitrile containing 0.1% FA and the internal standard mix. Samples were homogenized using a Metal Bead Lysing Matrix, vortexed for 1 min, shaken for 20 min at 4 °C on Thermomixer C, and centrifuged at 14,000× g rpm for 20 min at 4 °C. Finally, 50 µL of supernatant were diluted with 0.1% FA in water (1:1, v/v) and analyzed using HPLC/MS/MS.
The sample extraction of plasma (20 μL) was performed after spiking with the internal standard mix using the protein precipitation method and three volumes of ice-cold acetonitrile containing 0.1% formic acid. The extract was vortexed, incubated on ice for 20 min and centrifuged at 14,000× g rpm for 20 min at 4 °C. The supernatant was diluted with 0.1% FA in water (1:1, v/v) and analyzed by means of HPLC/MS/MS using a QTRAP 4500 (AB Sciex) mass spectrometer in positive ion mode in Multiple Reaction Monitoring (MRM screening) coupled with UHPLC (NEXERA XR, Shimadzu). Chromatographic separation was achieved on a Synergi 4 µm Fusion-RP 80 A 50 × 2 mm (Phenomenex) column at a flow rate of 0.2 mL/min. The gradient program was as follows: 20% B (0.3 min), 20–100% B (1.7 min), 100% B (3 min), 100–20% B (0.1 min), 20% B (2 min), solvent A (95:5:0.1% formic acid in water:methanol) and solvent B (methanol containing 0.1% formic acid). The column temperature was set to 40 °C. Analyst software was used to control the instrument and collect data. The ion transfer tube temperature was 300 °C. The spray voltage, collision energy, declastering potential, and gas parameters were optimized to achieve the maximal response using the test compounds. Selected reaction monitoring was carried out using the transition parameters. Calibration curves were constructed, and a linear response was obtained in the range of 0.25–500 ng/mL (VU357017, VU0152100, and F15599) and 1.25–2500 ng/mL (VU0238429) by spiking known amounts of each compound in blank brain homogenates and plasma. For VU0357017 and F15599 IS VU0152100 was used as internal standard. Sample concentration of internal standard was 100 ng/mL for IS VU0238429 and 50 ng/mL for IS VU0152100.
Brain penetration was calculated as FC/plasma ratio × 100%.

MK-801-treated mice = test: Novel object recognition (NOR) test, MK-801-induced deficits; type: in vivo
Method: Drugs were administered on two different schedules: (1) acute administration of compounds 45 min (WAY100635—5-HT1A antagonist) or 30 min (VU0357017, VU152100, VU0238429, and F15599) before MK-801 (also administered once 30 min before the test in Y-maze or T1 in NOR test); and (2) prolonged administration (once per day for 7 consecutive days) of the compounds and MK-801 with the last administration 24 h before the test (NOR test) or at the day of the test (Y-maze). […] Schedules of administration are presented graphically in Figure 2. The subeffective doses of the compounds for acute administration in the NOR test were chosen based on our previous research (see: [22, 23]) while dose-dependent studies of the activity of the compounds in reversing disruptions in the Y-maze or after prolonged administration along with MK-801 were performed within this study. Different vehicles were used throughout the study: (1) 0.9% NaCl and (2) 10% Tween 80. Vehicles were administered to all animals (e.g., control mice and MK-801-treated mice) on the same schedule as drugs were administered to the appropriate drug-treated groups of mice. Neither solvent exerted effects on animal behavior.
Male Albino Swiss mice (Charles River, Sulzfeld, Germany) weighing 20–25 g at the beginning of the experiments were used in the studies. The animals were housed in a room with a 12:12 h light-dark cycle at a temperature of 22 ± 1 °C with food and water available ad libitum. The experimental groups consisted of 8–10 animals. All drugs were administered intraperitoneally (i.p.) at a volume of 10 mL/kg. The behavioral experiments were performed by an observer who was blinded to the treatment. The procedures were conducted in accordance with the European Communities Council Directive of 22 September 2010 (2010/63/EU) and Polish legislation acts concerning animal experimentation and were approved by the II Local Ethics Committee by the Maj Institute of Pharmacology, Polish Academy of Sciences in Krakow (15/2020, 240/2020).
In acute experiments, the tested compounds (alone or in combination) were administered 30 min before MK-801 (0.3 mg/kg), which was administered 30 min before the test or training trial (T1) in the NOR test. In chronic experiments, the tested compounds (alone or in combination) and MK-801 were administered for seven days. Behavioral tests were performed on the eighth day.
The NOR test was performed as described previously. Briefly, the habituation, training and test trial were carried out in a dark room in a black, plastic rectangular arena illuminated with a 355 lux bulb. During the habituation trial, the animals were allowed to explore the arena in the absence of objects (10 min/day for 2 days). The next day, the training (T1) and test (T2) trials were performed. Throughout T1, mice were allowed to freely explore two identical objects (5 min), one of which was subsequently replaced by a novel object in T2 (1 h later, 5 min of exploration). Time spent exploring (i.e., sniffing or touching) the familiar (Tfamiliar) or novel object (Tnovel) was measured by a trained observer, and then the recognition index was calculated for each mouse [(Tnovel − Tfamiliar)/(Tfamiliar + Tnovel)] × 100.

**Q.** For `COc1ccc(CN2C(=O)C(=O)c3cc(OC(F)(F)F)ccc32)cc1` [VU0238429], which Kp at 30 min ([1]; acute, combination F15599 0.05 mg/kg + VU0238429 1 mg/kg, read-out: PFC Penetration) is on record?
**A.** The Kp at 30 min was 0.36.

**Q.** What about the Kp at 30 min ([1]; acute, top doses alone (VU0357017 5, VU0152100 1, VU0238429 5, F15599 0.1 mg/kg), 30 min after administration, read-out: PFC Penetration (FC/plasma ratio x 100%)) of the same molecule?
**A.** Its Kp at 30 min is 0.53.

**Q.** And the Kp at 30 min ([1]; chronic (7 days with MK-801), combination F15599 0.05 mg/kg + VU0238429 1 mg/kg, read-out: PFC Penetration)?
**A.** Its Kp at 30 min is 0.15.

**Q.** What about the Kp at 30 min ([1]; chronic (7 days with MK-801), top doses alone (VU0357017 5, VU0152100 1, VU0238429 5, F15599 0.1 mg/kg), read-out: PFC Penetration (FC/plasma ratio x 100%)) of the same molecule?
**A.** Its Kp at 30 min is 0.21.

**Q.** What about the concentration at 30 min ([1]; plasma, acute, combination F15599 0.05 mg/kg + VU0238429 1 mg/kg, read-out: Plasma) of the same molecule?
**A.** The concentration at 30 min was 120 ± 13.9 ng/mL.

**Q.** And the concentration at 30 min ([1]; plasma, acute, top doses alone (VU0357017 5, VU0152100 1, VU0238429 5, F15599 0.1 mg/kg), 30 min after administration, read-out: Plasma)?
**A.** Its concentration at 30 min is 486 ± 178 ng/mL.

**Q.** What about the concentration at 30 min ([1]; plasma, chronic (7 days with MK-801), combination F15599 0.05 mg/kg + VU0238429 1 mg/kg, read-out: Plasma) of the same molecule?
**A.** The concentration at 30 min was 35 ± 8.89 ng/mL.

**Q.** What about the concentration at 30 min ([1]; plasma, chronic (7 days with MK-801), top doses alone (VU0357017 5, VU0152100 1, VU0238429 5, F15599 0.1 mg/kg), read-out: Plasma) of the same molecule?
**A.** Its concentration at 30 min is 844 ± 235 ng/mL.

**Q.** What about the concentration at 30 min ([1]; prefrontal cortex (FC), acute, combination F15599 0.05 mg/kg + VU0238429 1 mg/kg, read-out: PFC) of the same molecule?
**A.** Its concentration at 30 min is 43.1 ± 1.81 ng/mL.

**Q.** And the concentration at 30 min ([1]; prefrontal cortex (FC), acute, top doses alone (VU0357017 5, VU0152100 1, VU0238429 5, F15599 0.1 mg/kg), 30 min after administration, read-out: PFC)?
**A.** Its concentration at 30 min is 256 ± 32.1 ng/mL.

**Q.** And the concentration at 30 min ([1]; prefrontal cortex (FC), chronic (7 days with MK-801), combination F15599 0.05 mg/kg + VU0238429 1 mg/kg, read-out: PFC)?
**A.** Its concentration at 30 min is 5.13 ± 0.83 ng/mL.

**Q.** And the concentration at 30 min ([1]; prefrontal cortex (FC), chronic (7 days with MK-801), top doses alone (VU0357017 5, VU0152100 1, VU0238429 5, F15599 0.1 mg/kg), read-out: PFC)?
**A.** The concentration at 30 min was 179 ± 25 ng/mL.

**Q.** And the “Fold higher penetration to the FC than to whole brain” value ([1]; FC penetration versus earlier whole-brain data)?
**A.** The value was “more than 6 times”.

**Q.** And the “PFC Penetration (FC/plasma ratio x 100%)” value ([1]; acute, top doses alone (VU0357017 5, VU0152100 1, VU0238429 5, F15599 0.1 mg/kg), 30 min after administration)?
**A.** The value was 53%.

**Q.** What about the “PFC Penetration (FC/plasma ratio x 100%)” value ([1]; chronic (7 days with MK-801), top doses alone (VU0357017 5, VU0152100 1, VU0238429 5, F15599 0.1 mg/kg)) of the same molecule?
**A.** Its value is 21%.

**Q.** And the “Decrease of FC penetration after acute concomitant administration with F15599” value ([1]; subeffective doses, compared to top dose alone)?
**A.** Its value is ~ 40%.

**Q.** And the “Decrease of FC penetration after prolonged administration compared to acute” value ([1]; top doses alone, animals treated with MK-801)?
**A.** Its value is “ca. 50%”.

**Q.** What about the “Reversal of MK-801-induced deficits in the NOR test (recognition index)” value (“Reversal … (recognition index)” for short) (MK-801-treated mice; 7 days with MK-801, 0.5 mg/kg) of the same molecule?
**A.** Its value is “ineffective”.

**Q.** What about the “Reversal … (recognition index)” value (MK-801-treated mice; 7 days with MK-801, 1 mg/kg) of the same molecule?
**A.** The value was “ineffective”.

**Q.** And the “Reversal … (recognition index)” value (MK-801-treated mice; 7 days with MK-801, 5 mg/kg)?
**A.** The value was “active”.

**Q.** What about the “Reversal of MK-801-induced disruptions in NOR test by combined administration” value (MK-801-treated mice; 7 days, F15599 0.05 mg/kg with VU0238429 1 mg/kg (subeffective doses)) of the same molecule?
**A.** Its value is “reversed”.

**Q.** And the “Effect of top dose on MK-801-induced deficits in the NOR test” value (MK-801-treated mice; acute, 5 mg/kg i.p., alone)?
**A.** The value was “pro-cognitive effect”.

**Q.** What about the “Effect of combined administration on MK-801-induced memory deficits in the NOR test” value (MK-801-treated mice; acute, subeffective doses, F15599 with VU0238429) of the same molecule?
**A.** Its value is “no effect”.
